In data set [1] the test system is VERPE. As to the kind of experiment: Herbicidal action post-emergence (greenhouse pot test, visual rating). It is filed as in vivo, Veronica persica. The conditions noted are these: Nachauflauf, 1280 g/ha, visual rating after ca. 3 weeks vs untreated controls. The text has this:
(§1) Samen von mono- bzw. dikotylen Unkraut- bzw. Kulturpflanzen werden in Holzfasertöpfen in sandigem Lehmboden ausgelegt, mit Erde abgedeckt und im Gewächshaus unter guten Wachstumsbedingungen angezogen. 2 bis 3 Wochen nach der Aussaat werden die Versuchspflanzen im Einblattstadium behandelt. Die in Form von benetzbaren Pulvern (WP) oder als Emulsionskonzentrate (EC) formulierten erfindungsgemäßen Verbindungen werden dann als wäßrige Suspension bzw. Emulsion mit einer Wasseraufwandmenge von umgerechnet 600 bis 800 l/ha unter Zusatz von 0,2% Netzmittel auf die grünen Pflanzenteile gesprüht. Nach ca. 3 Wochen Standzeit der Versuchspflanzen im Gewächshaus unter optimalen Wachstumsbedingungen wird die Wirkung der Präparate visuell im Vergleich zu unbehandelten Kontrollen bonitiert (herbizide Wirkung in Prozent (%): 100% Wirkung = Pflanzen sind abgestorben, 0 % Wirkung = wie Kontrollpflanzen).

For data set [2], the system named is ALOMY. As to the kind of experiment: Herbicidal action pre-emergence (greenhouse pot test, visual rating). The class given is in vivo, Alopecurus myosuroides. The conditions noted are these: Vorauflauf, 1280 g/ha, visual rating after 3 weeks vs untreated controls. An excerpt:
(§2) Samen von mono- bzw. dikotylen Unkraut- bzw. Kulturpflanzen werden in Holzfasertöpfen in sandiger Lehmerde ausgelegt und mit Erde abgedeckt. Die in Form von benetzbaren Pulvern (WP) oder als Emulsionskonzentrate (EC) formulierten erfindungsgemäßen Verbindungen werden dann als wäßrige Suspension bzw. Emulsion mit einer Wasseraufwandmenge von umgerechnet 600 bis 800 l/ha unter Zusatz von 0,2% Netzmittel auf die Oberfläche der Abdeckerde appliziert.
(§3) Nach der Behandlung werden die Töpfe im Gewächshaus aufgestellt und unter guten Wachstumsbedingungen für die Testpflanzen gehalten. Die visuelle Bonitur der Schäden an den Versuchspflanzen erfolgt nach einer Versuchszeit von 3 Wochen im Vergleich zu unbehandelten Kontrollen (herbizide Wirkung in Prozent (%): 100% Wirkung = Pflanzen sind abgestorben, 0 % Wirkung = wie Kontrollpflanzen).

The subject of data set [3] is ABUTH. The description is as above. The class given is in vivo, Abutilon theophrasti. Conditions: Vorauflauf, 1280 g/ha, visual rating after 3 weeks vs untreated controls.
Text: as §2, §3

Data set [4] relates to ABUTH. Briefly: Herbicidal action post-emergence (greenhouse pot test, visual rating). The class given is in vivo, Abutilon theophrasti. The conditions noted are these: Nachauflauf, 1280 g/ha, visual rating after ca. 3 weeks vs untreated controls.
Text: as §1

Data set [5] is described as follows: Log P. It is filed as physicochemical.
Data set [6] concerns AMARE. Briefly: Herbicidal action post-emergence (greenhouse pot test, visual rating). The class given is in vivo, Amaranthus retroflexus. Conditions: Nachauflauf, 1280 g/ha, visual rating after ca. 3 weeks vs untreated controls.
Text: as §1

Data set [7] relates to STEME. Briefly: Herbicidal action pre-emergence (greenhouse pot test, visual rating). The class given is in vivo, Stellaria media. Conditions: Vorauflauf, 1280 g/ha, visual rating after 3 weeks vs untreated controls.
Text: as §2, §3

In data set [8] the test system is PHBPU. As to the kind of experiment: Herbicidal action post-emergence (greenhouse pot test, visual rating). Conditions: Nachauflauf, 1280 g/ha, visual rating after ca. 3 weeks vs untreated controls. It is filed as in vivo, Pharbitis purpurea.
Text: as §1

Data set [9] deals with VIOTR. The data set is described as above. It is filed as in vivo, Viola tricolor. The conditions noted are these: Nachauflauf, 1280 g/ha, visual rating after ca. 3 weeks vs untreated controls.
Text: as §1

Data set [10] deals with STEME. The description is as above. It is filed as in vivo, Stellaria media. Conditions: Nachauflauf, 1280 g/ha, visual rating after ca. 3 weeks vs untreated controls.
Text: as §1

The subject of data set [11] is VERPE. As to the kind of experiment: Herbicidal action pre-emergence (greenhouse pot test, visual rating). The conditions noted are these: Vorauflauf, 1280 g/ha, visual rating after 3 weeks vs untreated controls. It is filed as in vivo, Veronica persica.
Text: as §2, §3

The test system of data set [12] is MATIN. Described as above. The class given is in vivo, Matricaria inodora. The conditions noted are these: Vorauflauf, 1280 g/ha, visual rating after 3 weeks vs untreated controls.
Text: as §2, §3

The subject of data set [13] is AMARE. Described as above. It is filed as in vivo, Amaranthus retroflexus. Conditions: Vorauflauf, 1280 g/ha, visual rating after 3 weeks vs untreated controls.
Text: as §2, §3

For data set [14], the system named is MATIN. As to the kind of experiment: Herbicidal action post-emergence (greenhouse pot test, visual rating). The class given is in vivo, Matricaria inodora. Conditions: Nachauflauf, 1280 g/ha, visual rating after ca. 3 weeks vs untreated controls.
Text: as §1

Data set [15] concerns Schadpflanzen. Briefly: Herbicidal action post-emergence, summary over the weed spectrum. The class given is in vivo. Conditions: Nachauflaufverfahren, Aufwandmenge von 1.28 kg und weniger Aktivsubstanz pro Hektar.
Text: as §1

Data set [16] deals with ECHCG. As to the kind of experiment: Herbicidal action pre-emergence (greenhouse pot test, visual rating). It is filed as in vivo, Echinochloa crus-galli. The conditions noted are these: Vorauflauf, 1280 g/ha, visual rating after 3 weeks vs untreated controls.
Text: as §2, §3

Data set [17] concerns AVEFA. The data set is described as above. Conditions: Vorauflauf, 1280 g/ha, visual rating after 3 weeks vs untreated controls. It is filed as in vivo, Avena fatua.
Text: as §2, §3

The test system of data set [18] is POLCO. The description is as above. The class given is in vivo, Polygonum convolvolus. The conditions noted are these: Vorauflauf, 1280 g/ha, visual rating after 3 weeks vs untreated controls.
Text: as §2, §3

Data set [19] concerns VIOTR. The description is as above. The class given is in vivo, Viola tricolor. The conditions noted are these: Vorauflauf, 1280 g/ha, visual rating after 3 weeks vs untreated controls.
Text: as §2, §3

Data set [20] has as its system SETVI. The data set is described as above. Conditions: Vorauflauf, 1280 g/ha, visual rating after 3 weeks vs untreated controls. It is filed as in vivo, Setaria viridis.
Text: as §2, §3

The test system of data set [21] is Schadpflanzen. As to the kind of experiment: Herbicidal action pre-emergence, summary over the weed spectrum. It is filed as in vivo. Conditions: Vorauflaufverfahren, Aufwandmenge von 1.28 kg und weniger Aktivsubstanz pro Hektar.
Text: as §2, §3

The test system of data set [22] is LOLMU. As to the kind of experiment: Herbicidal action pre-emergence (greenhouse pot test, visual rating). The class given is in vivo, Lolium multiflorum. Conditions: Vorauflauf, 1280 g/ha, visual rating after 3 weeks vs untreated controls.
Text: as §2, §3

SMILES strings stand for the structures.

On to `Cc1cc(OC(C)C)c(C(=O)NC(c2ccc(F)c(F)c2)c2ccon2)c(Cl)n1` (racemic) [Beispiel 174, 2-Chlor-N-[(3,4-difluorphenyl)(isoxazol-3-yl)methyl]-4-isopropoxy-6-methylnicotinamid], for which the “herbizide Wirkung VERPE” value in data set [1] and in data set [11] was 100% each time. For the same compound, the “herbizide Wirkung ALOMY” value in data set [2] is given as 60%. In addition, the “herbizide Wirkung ABUTH” value in [3] and in data set [4] was 100% in each case. Moreover, the logP (in general, the decadic logarithm of the partition coefficient of the neutral form, usually between octanol and water) in [5] was determined as 2.26. In addition, the “herbizide Wirkung AMARE” value in data set [6] and in data set [13] was 100% throughout. Besides, the “herbizide Wirkung STEME” value in data set [7] and in data set [10] was 100% each time. The “herbizide Wirkung PHBPU” value in [8] came out at 80%. In data set [9], the “herbizide Wirkung VIOTR” value stood at 80%. The results for the “herbizide Wirkung MATIN” value in data set [12] and in data set [14] were 80% and 90%, respectively.

Consider `CCCOc1cc(C)nc(Cl)c1C(=O)NC(c1ccon1)c1ccc(OC)cc1F` (centres unmarked) [Beispiel 2, 2-Chlor-N-[(2-fluor-4-methoxyphenyl)(isoxazol-3-yl)methyl]-6-methyl-4-n-propoxynicotinamid], for which the “herbizide Wirkung gegen Schadpflanzen” value in [15] is listed as “sehr gute herbizide Wirkung”.

As to `CCCOc1cc(C)nc(Br)c1C(=O)NC(c1ccc(F)c(F)c1)c1ccon1` (centres unmarked) [Beispiel 161], the “herbizide Wirkung ECHCG” value in data set [16] stood at 80%. Also, the “herbizide Wirkung ALOMY” value in [2] was 90%. The “herbizide Wirkung ABUTH” value in [3] stood at 100%. The “herbizide Wirkung AVEFA” value in data set [17] stood at 80%. Moreover, the “herbizide Wirkung STEME” value in data set [7] is listed as 100%. In data set [18], the “herbizide Wirkung POLCO” value turned out to be 100%. The “herbizide Wirkung VIOTR” value in data set [19] is listed as 100%. The “herbizide Wirkung SETVI” value in data set [20] was determined as 100%. The “herbizide Wirkung VERPE” value in data set [11] was 100%. Further, the “herbizide Wirkung MATIN” value in [12] came to 100%. In data set [13], the “herbizide Wirkung AMARE” value amounted to 100%. Moreover, the “herbizide Wirkung gegen Schadpflanzen” value in data set [21] is given as “sehr gute herbizide Wirkung”. In [22], the “herbizide Wirkung LOLMU” value amounted to 90%.

Consider `CCCOc1cc(C)nc(Br)c1C(=O)NC(c1cccc(Cl)c1)c1ccon1` (centres unmarked) [Beispiel 162], for which, in [16], the “herbizide Wirkung ECHCG” value amounted to 80%. Besides, in data set [2], the “herbizide Wirkung ALOMY” value is recorded as 90%. Besides, the “herbizide Wirkung ABUTH” value in data set [3] is 100%. Further, the “herbizide Wirkung gegen Schadpflanzen” value in [15] and in data set [21] was “sehr gute herbizide Wirkung” throughout. Further, in [7], the “herbizide Wirkung STEME” value is 100%. For the same compound, the “herbizide Wirkung POLCO” value in [18] is 100%. Besides, the “herbizide Wirkung VIOTR” value in data set [19] worked out at 100%. Besides, the “herbizide Wirkung SETVI” value in data set [20] is on record as 80%. Also, the “herbizide Wirkung VERPE” value in [11] was 100%. Besides, the “herbizide Wirkung MATIN” value in data set [12] was 100%. The “herbizide Wirkung AMARE” value in data set [13] is on record as 100%. In data set [22], the “herbizide Wirkung LOLMU” value was found to be 80%.

Take `COc1ccc(C(NC(=O)c2c(C)nn(C)c2Cl)c2ccon2)c(F)c1` (centres unmarked) [Beispiel 261]: the “herbizide Wirkung VERPE” value in data set [1] and in data set [11] was 100% in each case. In addition, in [4], the “herbizide Wirkung ABUTH” value stood at 80%. The “herbizide Wirkung AMARE” value in data set [6] is listed as 90%; in [13], 100%. Moreover, the “herbizide Wirkung STEME” value in data set [7] and in data set [10] was 100% throughout. Besides, the “herbizide Wirkung PHBPU” value in data set [8] worked out at 80%. Also, the “herbizide Wirkung VIOTR” value in data set [9] was 100%. Further, the “herbizide Wirkung SETVI” value in data set [20] is 90%. Further, the “herbizide Wirkung MATIN” value in data set [12] and in [14] was 100% each time.
